This note sets out measurements from ChEMBL document CHEMBL5230136, “A review: Biologically active 3,4-heterocycle-fused coumarins” (Eur J Med Chem, 2021).

A word on the MIC: it is the lowest concentration found to suppress growth. A word on the IC50: it is the concentration needed to halve the response being measured. As a reminder, the inhibition is how much of the control response was suppressed. Broadly, the EC50 is the midpoint of the concentration-response curve.

SMILES strings stand for the structures. ≈ marks a conversion by molar mass, not a printed value. A value given as a limit tells only on which side of the number the result lay.

The test system of data set [1] is Salmonella enterica. In words: Antibacterial activity against Salmonella enterica assessed as bacterial growth inhibition by broth dilution method. The format is functional.
Data set [2] has as its system HCT-116/VM46. In words: cells. Particulars: Homo sapiens.
For data set [3], the system named is HCT-116. In words: Cytotoxicity against human HCT-116 cells assessed as reversal of multi drug resistance at 1 uM. In kind it is functional, cell-based.
In data set [4] the test system is L1210. In words: Cytotoxicity against […] cells assessed as reversal of multi drug resistance at 1 uM. Particulars: Mus musculus. In kind it is functional, cell-based.
The test system of data set [5] is L1210. In words: Cytotoxicity against mouse L1210 cells assessed as reduction in cell viability. The format is functional, cell-based.
Data set [6] in a line: Antioxidant activity assessed as DPPH radical scavenging activity. In kind it is functional. Background: DPPH is a stable violet radical that fades when it is reduced.
Data set [7] concerns MCF7. In words: Anticancer activity against human MCF7 cells assessed as inhibition of cell proliferation measured after 48 hrs by MTT assay. The format is functional, cell-based. Particulars: MCF7, 48 h. A general note: Formazan colour is commonly taken as a measure of viable cells.
Data set [8] is described as follows: Cytotoxicity against human MRC5 cells assessed as reduction in cell viability measured after 72 hrs by MTT assay. In kind it is toxicity, cell-based.
The subject of data set [9] is HCT-116/VM46. In words: Anticancer activity against Multi drug resistant human HCT-116/VM46 cells assessed as inhibition of cell growth. The format is functional, cell-based.
Data set [10] concerns MCF7. In words: Inhibition of CKII in human MCF7 cells at 50 uM assessed as inhibition. In kind it is cell-based.
Data set [11] deals with HCT-116. In words: Inhibition of CKII in human HCT-116 cells at 50 uM assessed as inhibition. In kind it is cell-based.
Data set [12] can be described thus: Inhibition of wild type HIV-1 protease. The arrangement: species or system Human immunodeficiency virus.
Data set [13] relates to HeLa. In words: Antiproliferative activity against human HeLa cells assessed as reduction in cell proliferation. In kind it is functional, cell-based.
Data set [14] can be described thus: Antioxidant activity assessed as FRAP radical activity by FRAP assay. The format is functional.
Data set [15] has as its system HepG2. In words: Anticancer activity against human HepG2 cells by MTT assay. The format is functional, cell-based.
Data set [16] in a line: Cytotoxicity against human HCC-S102 cells assessed as reduction in cell viability. The format is functional, cell-based.
In data set [17] the test system is Botrytis cinerea. In words: Antifungal activity against Botrytis cinerea. The format is functional, organism-based.
The subject of data set [18] is Colletotrichum camelliae. In words: Antifungal activity against Colletotrichum camelliae. The format is functional, organism-based.
The test system of data set [19] is Botrytis cinerea. In words: Antifungal activity against Botrytis cinerea assessed as inhibition of fungal growth incubated for 24 hrs by standard broth dilution assay. The format is functional, organism-based. Background: In broth dilution the organism is exposed to a series of concentrations in liquid medium.
For data set [20], the system named is Candida albicans. In words: Antifungal activity against Candida albicans assessed as reduction in fungal growth. In kind it is functional.
Data set [21] can be described thus: Inhibition of HIV-1 integrase. The arrangement: species or system Human immunodeficiency virus 1.
Data set [22] has as its system Serratia marcescens. In words: Antibacterial activity against Serratia marcescens assessed as zone of inhibition at 20 mg/ml. Particulars: read-out: IZ. The format is functional.
Data set [23] has as its system Trichophyton rubrum. In words: Antifungal activity against Trichophyton rubrum assessed as zone of inhibition at 20 mg/ml. Particulars: read-out: IZ. In kind it is functional.
Data set [24] deals with Candida albicans. In words: Antifungal activity against Candida albicans assessed as zone of inhibition at 20 mg/ml. Particulars: read-out: IZ. The format is functional.
Data set [25] concerns Pseudomonas aeruginosa. In words: Antibacterial activity against Pseudomonas aeruginosa assessed as zone of inhibition at 20 mg/ml. The format is functional. Particulars: read-out: IZ.
Data set [26] deals with Micrococcus luteus. In words: Antibacterial activity against Micrococcus luteus assessed as zone of inhibition at 20 mg/ml. In kind it is functional. Particulars: read-out: IZ.
Data set [27] concerns Fusarium oxysporum. In words: Antifungal activity against Fusarium oxysporum assessed as zone of inhibition at 50 uM. In kind it is functional. Particulars: read-out: IZ.
Data set [28] concerns Staphylococcus aureus. In words: Antibacterial activity against Staphylococcus aureus assessed as zone of inhibition at 20 mg/ml. The format is functional. Particulars: read-out: IZ.
The test system of data set [29] is Bacillus cereus. In words: Antibacterial activity against Bacillus cereus assessed as zone of inhibition at 20 mg/ml. Particulars: read-out: IZ. In kind it is functional.
Data set [30] has as its system Fusarium oxysporum. In words: Antifungal activity against Fusarium oxysporum assessed as zone of inhibition at 20 mg/ml. In kind it is functional. Particulars: read-out: IZ.
The subject of data set [31] is Scopulariopsis. In words: Antifungal activity against Scopulariopsis assessed as zone of inhibition at 20 mg/ml. Particulars: read-out: IZ. The format is functional.
The test system of data set [32] is Geotrichum candidum. In words: Antifungal activity against Geotrichum candidum assessed as zone of inhibition at 20 mg/ml. The format is functional. Particulars: read-out: IZ.
Data set [33] concerns Escherichia coli. In words: Antibacterial activity against Escherichia coli assessed as zone of inhibition at 20 mg/ml. The format is functional. Particulars: read-out: IZ.
Data set [34] concerns Aspergillus flavus. In words: Antifungal activity against Aspergillus flavus assessed as zone of inhibition at 20 mg/ml. In kind it is functional. Particulars: read-out: IZ.
The subject of data set [35] is Geotrichum candidum. In words: Antimicrobial activity against Geotrichum candidum assessed as zone of inhibition at 50 uM. The format is functional. Particulars: read-out: IZ.
For data set [36], the system named is HCT-15. In words: Anticancer activity against human HCT-15 cells assessed as cell growth inhibition. The format is functional, cell-based.
The test system of data set [37] is MES-SA. In words: Cytotoxicity against human MES-SA cells assessed as reduction in cell viability incubated for 72 hrs by MTT assay. In kind it is functional, cell-based.

On to `CCc1c(C)c(=O)oc2c1c(=O)oc1ccccc12`, for which the minimum inhibitory concentration (MIC) in data set [1] is 50 µM (≈ 12.8 µg/mL).

For `O=c1oc2cc(O)c(O)cc2c2c(-c3ccc(O)c(O)c3)cn(CCc3ccc(O)c(O)c3)c12`, the IC50 came out at 60 µM in [2], 12 µM in data set [3], 10 µM in data set [4] and 10 µM in [5].

For the compound `O=c1oc2ccccc2c2[se]c(CN3CCOCC3)c(Nc3cccnc3)c12`, the IC50 amounted to 4 µM in [6] and 41 µM in [7].

For the compound `COc1cc2c(cc1O)oc(=O)c1c2c(-c2ccc(OC)c(OC)c2)c2c3cc(OC)c(O)cc3ccn21`, the IC50 at 72 h in data set [8] is over 97 µM.

`COc1ccc(CCn2cc(-c3ccc(OC)c(OC)c3)c3c4cc(OC)c(OC)cc4oc(=O)c32)cc1OC`: the IC50 in [2] came to 40 µM; in data set [4] it was 50 µM; in data set [9], 40 µM.

`O=c1oc2cc(O)ccc2c2oc3cc(O)ccc3c12`: the inhibition in [10] was found to be 50%; in [11], 30%.

On to `COc1ccc(-c2c3c4cc(OC)c(O)cc4oc(=O)c3n3ccc4cc(O)c(OC)cc4c23)cc1O`, for which the IC50 in [12] came out at 8 µM.

For `O=C(NO)c1cc2c(=O)oc3ccccc3c2s1`, the IC50 in data set [13] amounted to 8.84 µM.

As for `O=c1oc2ccccc2c2c1C(c1ccc(Br)cc1O)SCCN2` (stereo in doubt; 203c), the IC50 in data set [14] turned out to be 0.186 µM; in [6], 290 µM; in [15] it was 290 µM.

`COc1cc(-c2c3c4cc(OC)c(O)cc4oc(=O)c3n3ccc4cc(O)c(OC)cc4c23)ccc1O` [LAMELLARIN D]: the IC50 in data set [16] was 3.2 µM.

For `Cc1oc2c(c1C)c(=O)oc1cc(OC(C)C)ccc12`, the concentration giving a half-maximal response (EC50) came out at 1.72 µg/mL (≈ 6.32 µM) in [17], 6.02 µg/mL (≈ 22.1 µM) in data set [18] and 1.72 µM in data set [19].

As to `COc1cccc2cc(-c3ccc4c(=O)oc5c(C)cccc5c4n3)c(=O)oc12`, the MIC in [20] amounted to 1000 µg/mL (≈ 2590 µM).

`COc1ccc(-c2c3c4cc(OC)c(OS(=O)(=O)O)cc4oc(=O)c3n3ccc4cc(OC)c(OC)cc4c23)cc1O` displayed a 50% inhibitory concentration (IC50) in data set [21] of 8 µM.

`CCOC(=O)c1sc2c(c1N)c(=O)oc1ccccc12`: the zone of inhibition at 20000 µg/mL in data set [22] is 8 mm; in [23] it was 0 mm; in [24], 13 mm; in [25], 10 mm; in data set [26] it was 8 mm; in data set [28] it was 9 mm. Besides, the zone of inhibition at 20000 µg/mL in data set [29] came out at 0 mm; in data set [30] it was 0 mm; in data set [31], 8 mm; in [32] it was 0 mm; in data set [33] it was 0 mm; in [34], 0 mm. Moreover, the zone of inhibition at 50 µM in data set [27] is 16 mm.

As to `CCOC(=O)c1sc2c(c1NC(=O)CNc1ccc(S(N)(=O)=O)cc1)c(=O)oc1ccccc12`, the zone of inhibition at 20000 µg/mL was 0 mm in data set [22]; 0 mm in data set [23]; 0 mm in [24]; 0 mm in data set [25]; 0 mm in data set [26]; 9 mm in data set [28]. For the same compound, the zone of inhibition at 20000 µg/mL is 0 mm in data set [29]; 0 mm in data set [30]; 0 mm in data set [31]; 10 mm in data set [32]; 9 mm in data set [33]; 0 mm in [34]. Further, in data set [35], the zone of inhibition at 50 µM came to 10 mm.

In turn, `O=c1oc2ccccc2c2c1C(c1ccc(Br)cc1O)SCCN2` (stereo in doubt; 200) displayed a half-maximal inhibitory concentration (IC50) in data set [15] of 58 µM.

On to `O=c1c(O)c(-c2ccc(O)c(O)c2)oc2cc(O)cc(O)c12` [QUERCETIN], for which the IC50 in [14] came out at 53900 µM.

`CC(=O)/C=C1\c2c(c3ccccc3oc2=O)OC1(c1ccccc1)N(C)C` (centres undefined): the half-maximal inhibitory concentration (IC50) in [36] was found to be 8 µM.

Regarding `O=[Se](O)O` [SODIUM SELENITE], the IC50 in [37] was found to be 29 µM.
